Assay results published in patent US20190014776A1 (priority 2017, published 2019).

Format: physicochemical
Settings: relative to tank mix of CLARITY and CONTROLMAX; dicamba 1.2 wt. % a.e., glyphosate 2.4 wt. % a.e.; 35° C., 40% RH, 24 hours
Method: The dicamba volatility from each composition was measured by the procedure described in “A Method to Determine the Relative Volatility of Auxin Herbicide Formulations” in ASTM publication STP1587 entitled “Pesticide Formulation and Delivery Systems: 35th Volume, Pesticide Formulations, Adjuvants, and Spray Characterization in 2014, published 2016, which is incorporated herein by reference.
Humidomes obtained from Hummert International (Part Nos 14-3850-2 for humidomes and 11-3050-1 for 1020 flat tray) were modified by cutting a 2.2 cm diameter hole on one end approximately 5 cm from the top to allow for insertion of a glass air sampling tube (22 mm OD) containing a polyurethane foam (PUF) filter. The sampling tube was secured with a VITON o-ring on each side of the humidome wall. The air sampling tube external to the humidome was fitted with tubing that was connected to a vacuum manifold immediately prior to sampling.
The flat tray beneath the humidome was filled with 1 liter of sifted dry or wet 50/50 soil (50% Redi-Earth and 50% US 10 Field Soil) to a depth of about 1 cm. […]
The flat tray bottom containing the auxin herbicide formulation on soil was covered with the humidome lid and the lid was secured with clamps. […] The PUF filter was extracted with 20 mL of methanol and the solution was analyzed for the auxin herbicide concentration using LC-MS methods known in the art.

For CCCC[N+](CCCC)(CCCC)CCCC.COc1c(Cl)ccc(Cl)c1C(=O)[O-] [TBA Dicamba, tetrabutylammonium (TBA) dicamba], the “Volatility Reduction” value was 99.5%.
